Test results taken from PMC11145868, “Protein target similarity is positive predictor of in vitro antipathogenic activity: a drug repurposing strategy for Plasmodium falciparum” (Journal of Cheminformatics, 2024).
Counter-ions that a name gives are not always drawn. Like-named read-outs stand apart in the source and are kept apart here.

Tests used:
[1] = Mammalian cell cytotoxicity assay, HEK293T (CellTiter-Glo, 72 h); details: human, HEK293T cells
[2] = system: P. falciparum Dd2-HLH; test: microbe, parasite or virus in culture; type: cell-based, Plasmodium falciparum
[3] = system: P. falciparum Dd2-HLH; test: microbe, parasite or virus in culture; type: cell-based, Plasmodium falciparum; details: read-out: Blood stage 72h EC50
[4] = system: P. berghei-luciferase sporozoites; test: microbe, parasite or virus in culture; type: cell-based, Plasmodium berghei; details: read-out: Liver stage 48h EC50
[5] = Plasmodium falciparum, DD2, 48 h, read-out: Blood stage 48h EC50
[6] = Plasmodium falciparum, DD2, 72 h
[7] = Plasmodium berghei, HepG2, liver-stage parasites, 48 hours in culture
[8] = P. falciparum blood-stage parasites, 48 hours in culture, read-out: Blood stage 48h EC50
[9] = P. falciparum blood-stage parasites, 72 hours in culture
[10] = liver-stage parasites, 48 hours in culture

Compound	CC50 at 72 h [1]	EC50 [2, 5]	EC50 [3, 6]	EC50 [4, 7]	EC50 ([2]; Plasmodium falciparum, DD2, Hec50, 48 h, read-out: Blood stage 48 h EC50)	EC50 ([4]; Plasmodium berghei, HepG2, 48 h)	EC50 [2, 8]	EC50 [3, 9]	EC50 [4, 10]	EC50 ([2]; Plasmodium falciparum, DD2, read-out: EC50 (antiplasmodial, quoted in discussion from Supplementary Table 1))
CN(C)c1ccc(C(=C2C=CC(=[N+](C)C)C=C2)c2ccc(N(C)C)cc2)cc1 [Gentian violet]	136 nM	104 nM	456 nM	214 nM	–	–	–	–	–	–
C=CCn1c(=O)c2cnc(Nc3ccc(N4CCN(C)CC4)cc3)nc2n1-c1cccc(C(C)(C)O)n1 [MK-1775]	310 nM	595 nM	681 nM	6100 nM	–	–	–	–	–	–
O=C(/C=C/c1cccc(S(=O)(=O)Nc2ccccc2)c1)NO [Belinostat]	1290 nM	90 nM	188 nM	1830 nM	–	–	–	–	–	–
CO[C@@H]1[C@H](O)C[C@@H](O[C@@H]2C[C@H](Oc3cc4cc5c(c(O)c4c(O)c3C)C(=O)[C@@H](O[C@H]3C[C@@H](O[C@H]4C[C@@H](O[C@H]6C[C@](C)(O)[C@@H](OC(C)=O)[C@H](C)O6)[C@H](O)[C@@H](C)O4)[C@H](O)[C@@H](C)O3)[C@H]([C@H](OC)C(=O)[C@@H](O)[C@@H](C)O)C5)O[C@H](C)[C@@H]2OC(C)=O)O[C@@H]1C [Chromomycin A3]	–	31 nM	48 nM	30 nM	–	–	–	–	–	–
O=C(Nc1c[nH]nc1-c1nc2ccc(CN3CCOCC3)cc2[nH]1)NC1CC1 [AT-9283]	–	129 nM	864 nM	569 nM	–	–	–	–	–	–
CS(=O)(=O)CCNCc1ccc(-c2ccc3ncnc(Nc4ccc(OCc5cccc(F)c5)c(Cl)c4)c3c2)o1 [Lapatinib]	> 9950 nM	300 nM	519 nM	4220 nM	–	–	–	–	–	–
CC(C)(C)NC[C@H](O)COc1ccccc1C1CCCC1 [Penbutolol]	> 9950 nM	418 nM	980 nM	20000 nM	–	–	–	–	–	–
COc1ccc(CCN2CCC(Nc3nc4ccccc4n3Cc3ccc(F)cc3)CC2)cc1 [Astemizole]	> 9950 nM	–	–	–	–	–	–	–	–	–
COC(=O)[C@@]12OC[C@]34[C@H]([C@@H](O)[C@@H]1O)[C@@]1(C)CC(=O)C(O)=C(C)[C@@H]1C[C@H]3OC(=O)[C@H](OC(=O)/C=C(\C)C(C)C)[C@@H]24 [Bruceantin, reference compound]	25 nM	–	7 nM	–	5 nM	–	–	–	–	–
CNCCCC1c2ccccc2C=Cc2ccccc21 [Protriptyline hydrochloride]	> 9950 nM	430 nM	959 nM	–	–	> 10000 nM	–	–	–	–
COCCn1c2c([n+](Cc3cnccn3)c1C)C(=O)c1ccccc1C2=O [Sepantronium bromide]	56 nM	21 nM	82 nM	10 nM	–	–	–	–	–	–
CCc1cc2c(cc1N1CCC(N3CCOCC3)CC1)C(C)(C)c1[nH]c3cc(C#N)ccc3c1C2=O [Alectinib Hydrochloride]	797 nM	907 nM	926 nM	152 nM	–	–	–	–	–	–
COCCN1CCN(Cc2ccc(-c3n[nH]c4c3C(=O)c3c(NC(=O)NN5CCOCC5)cccc3-4)cc2)CC1 [RGB-286638]	58 nM	138 nM	300 nM	87 nM	–	–	–	–	–	–
C[C@@H](Oc1ccc2[nH]nc(/C=C/c3cnn(CCO)c3)c2c1)c1c(Cl)cncc1Cl [LY-2874455]	875 nM	512 nM	733 nM	2360 nM	–	–	–	–	–	–
CN(C)c1ccc2nc3ccc(=[N+](C)C)cc-3sc2c1 [Methylthioninium Chloride]	1770 nM	67 nM	118 nM	1050 nM	–	–	–	–	–	–
C/C=C/C[C@@H](C)C(=O)[C@H]1C(=O)N[C@@H](C(C)C)C(=O)N(C)CC(=O)N(C)[C@@H](CC(C)C)C(=O)N[C@@H](C(C)C)C(=O)N(C)[C@@H](CC(C)C)C(=O)N[C@@H](C)C(=O)N[C@H](C)C(=O)N(C)[C@@H](CC(C)C)C(=O)N(C)[C@@H](CC(C)C)C(=O)N(C)[C@@H](C(C)C)C(=O)N1C [Valspodar]	> 9950 nM	307 nM	370 nM	3 nM	–	–	–	–	–	–

Compound	CC50 at 72 h [1]	EC50 [2, 5]	EC50 [3, 6]	EC50 [4, 7]	EC50 ([2]; Plasmodium falciparum, DD2, Hec50, 48 h, read-out: Blood stage 48 h EC50)	EC50 ([4]; Plasmodium berghei, HepG2, 48 h)	EC50 [2, 8]	EC50 [3, 9]	EC50 [4, 10]	EC50 ([2]; Plasmodium falciparum, DD2, read-out: EC50 (antiplasmodial, quoted in discussion from Supplementary Table 1))
COc1ccc(C(=O)c2cn(C(C)C)c3ncnc(N)c23)cc1NC(=O)Nc1ccc(Cl)cc1Cl [CE-245677]	> 9950 nM	619 nM	810 nM	3330 nM	–	–	–	–	–	–
CNCCCN1c2ccccc2CCc2ccccc21 [Desipramine]	> 9950 nM	238 nM	622 nM	3330 nM	–	–	–	–	–	–
Oligomycin A	–	–	–	–	–	–	57 nM	168 nM	578 nM	–
COc1cccc2c1C(=O)c1c(O)c3c(c(O)c1C2=O)C[C@@](O)(C(=O)CO)C[C@@H]3O[C@H]1C[C@H](N)[C@@H](O)[C@H](C)O1 [Epirubicin HCl]	103 nM	271 nM	366 nM	1480 nM	–	–	–	–	–	–
CC[C@]1(O)C[C@@H]2CN(CCc3c([nH]c4ccccc34)[C@@](C(=O)OC)(c3cc4c(cc3OC)N(C)[C@H]3[C@@](O)(C(=O)OC)[C@H](OC(C)=O)[C@]5(CC)C=CCN6CC[C@]43[C@@H]65)C2)C1 [Vinblastine sulfate]	102 nM	29 nM	24 nM	1100 nM	–	–	–	–	–	–
C#Cc1cccc(Nc2ncnc3cc(OC)c(OCCCCCCC(=O)NO)cc23)c1 [CUDC-101]	408 nM	41 nM	52 nM	349 nM	–	–	–	–	–	–
CC[C@H](NC(=O)[C@H](C)NC)C(=O)N1C[C@@H](O)C[C@H]1Cc1c(-c2[nH]c3cc(F)ccc3c2C[C@@H]2C[C@H](O)CN2C(=O)[C@H](CC)NC(=O)[C@H](C)NC)[nH]c2cc(F)ccc12 [Birin/apant]	> 9950 nM	190 nM	603 nM	> 10000 nM	–	–	–	–	–	–
CNC(=O)[C@H](Cc1ccccc1)NC(=O)[C@H](CC(C)C)[C@H](CSc1cccs1)C(=O)NO [Batimastat]	> 9950 nM	95 nM	165 nM	> 10000 nM	–	–	–	–	–	–
COC(=O)C[C@](O)(CCC(C)(C)O)C(=O)O[C@@H]1C(OC)=C[C@]23CCCN2CCc2cc4c(cc2[C@H]13)OCO4 [harringtonine, reference compound]	–	24 nM	43 nM	29 nM	–	–	–	–	–	6.1 nM
CCC1=C[C@@H]2CN(C1)Cc1c([nH]c3ccccc13)[C@@](C(=O)OC)(c1cc3c(cc1OC)N(C)[C@H]1[C@@](O)(C(=O)OC)[C@H](OC(C)=O)[C@]4(CC)C=CCN5CC[C@]31[C@@H]54)C2 [Vinorelbine]	2980 nM	171 nM	809 nM	–	–	–	–	–	–	–
C/C1=C/C[C@@H](/C(C)=C/c2csc(C)n2)OC(=O)C[C@H](O)C(C)(C)C(=O)[C@H](C)[C@@H](O)[C@@H](C)CCC1 [Desoxyepothilone B]	–	44 nM	76 nM	986 nM	–	–	–	–	–	–
CC(C)c1cc(CNc2nc(Nc3cc(C4CC4)[nH]n3)cc(N3CCN(C)CC3)n2)on1 [XL-228]	537 nM	56 nM	621 nM	–	–	–	–	–	–	–
CO[C@@H]1[C@H](N(C)C(=O)c2ccccc2)C[C@H]2O[C@]1(C)n1c3ccccc3c3c4c(c5c6ccccc6n2c5c31)C(=O)NC4 [Midostaurin]	> 9950 nM	86 nM	–	3600 nM	–	–	–	–	–	–
COc1ccc(C[C@H]2NC[C@H](O)[C@H]2OC(C)=O)cc1 [Anisomycin]	–	–	–	–	–	–	44 nM	61 nM	266 nM	–
Cc1ccc(C(=O)Nc2ccc(CN3CCN(C)CC3)c(C(F)(F)F)c2)cc1C#Cc1cnc2cccnn12 [Pon/atinib]	–	294 nM	555 nM	241 nM	–	–	–	–	–	–
